Data as given in patent US11363815B2, “Trifluoroethyl thioether (sulfoxide) substituted benzene compound and use thereof” (SHENYANG UNIVERSITY OF CHEMICAL TECHNOLOGY, priority 2018, dated 2022).

Tested on: Tetranychus cinnabarinus eggs
Assay: Determination of activity of Tetranychus cinnabarinus eggs (greenhouse spray test)
Assay type: in vivo
Details: 120 h, concentration of the chemical solution 5 mg/L, spray treatment of eggs on marrow bean leaf, examined after 5 days, read-out: hatching inhibition rate for Tetranychus cinnabarinus eggs
Description: The acaricidal activity in a greenhouse was determined by using the compound of the present invention. The determination method is as follows: According to the solubility of the compound to be tested, the compound was dissolved with acetone or dimethyl sulfoxide, and prepared into 50 ml of solution to be tested in a concentration needed with 0.1% Tween 80 solution, in which the content of acetone or dimethyl sulfoxide comprises not more than […]. A potted marrow bean seedling with two true leaves was taken, one true leaf was removed, then 10 female adult mites of healthy Tetranychus cinnabarinus were inoculated to the leaf, the adult mites were removed after 24 hours, spray treatment was performed after examination of the number of eggs. Every treatment was performed for 3 times. After 5 days, when all the blank control eggs were incubated, the number of the eggs which were not incubated in each treatment was examined to calculate the incubation inhibition rate.

| SMILES | inhibition at 5 µg/mL [%] |
| --- | --- |
| Cc1cc(F)c(N2Cc3ccccc3C2=O)cc1SCC(F)(F)F [compound 1] | ≥ 90 |
| Cc1cc(F)c(N2Cc3ccccc3C2=O)cc1[S+]([O-])CC(F)(F)F (centres unmarked) [compound 2] | ≥ 90 |
